From patent US20190274290A1, “GENETICALLY MODIFIED MOUSE MODEL FOR HUMAN HEPATOCYTE XENOTRANSPLANTATION” (The Jackson Laboratory, priority 2016, published 2019)

Legend:
NSG-PiZ mice [1] = experiment: Human hepatocyte engraftment in NSG-PiZ mice, serum human albumin ELISA; assay type: in vivo, mouse; conditions: for human hepatocyte engraftment (serum human albumin), comparison of groups: two doses of 50 mg/kg intraperitoneal MCT 14 and 7 days before engraftment, 50 mg/kg
Method: Human albumin levels were evaluated post-engraftment by using the human Albumin ELISA quantitation set (Bethyl Labs) as described by the manufacturer. For all assays, after incubation with the HRP-conjugated antibody, 3,3′,5,5′-tetramethylbenzidine (TMB) peroxidase substrate (KPL) was applied, and the reactions were stopped by adding 2 […] (Fisher Scientific) after 15-30 min. Plates were read at […] on a VersaMax microplate reader (Molecular Devices).
Animals were pre-treated with 50 mg/kg MCT (Oakwood Chemical) intraperitoneally 7 days or 14 and 7 days prior to engraftment or treated at the time of engraftment with 1 μg purified NA/LE hamster anti-mouse CD95 antibody (first apoptosis signal [FAS], BD PharMingen) intravenously.
To investigate additional methods for increased human hepatocyte engraftment, two approaches used in the liver xenograft field were tested: monocrotaline (MCT) and a mouse-specific anti-Fas antigen (CD95) antibody. MCT is a pyrrolizidine plant alkaloid with known endothelial toxicity in the lung, liver, and kidney. […] The anti-CD95 antibody recognizes mouse Fas and leads to cytolytic activity of cells expressing mouse Fas by inducing apoptosis of mouse hepatocytes and other cells.
(§1) All recipient mice were males, age 6-10 weeks, and they were anesthetized by isoflurane inhalation in a closed ventilation chamber. For intrasplenic injection, an incision was made on mouse left paralumbar fossa in order to expose the spleen. […] The exposed spleen was returned to the abdominal cavity and the incision was closed with an absorbable suture (4-0 Vicryl). Vet Bond was applied topically to seal the skin incision. For partial hepatectomy, median-line incision was made to expose the liver. The median lobe of the liver and the left lateral lobe were seemly tied off with 4-0 silk Blake braided suture and excised. Two-thirds of the total liver was removed by partial hepatectomy. The remaining liver was gently returned to the abdominal cavity. […]

NSG-PiZ mice [2] = experiment: Percentage of human hepatocytes in engrafted mouse liver (flow cytometry, anti-HLA-ABC / CD324); assay type: in vivo; conditions: MCT-treated NSG-PiZ mice; flow cytometry with anti-HLA antibody
Method: After dissociation, cells were stained on ice for 30 minutes with anti-mouse/human CD324 (Biolegend) and anti-HLA-ABC (BD Biosciences) antibodies to determine human hepatocyte percentage. Cells were then washed twice with 1×PBS and resuspended in 1×PBS supplemented with 0.5% FHS and 2 mM EDTA. Cells were acquired using FACS-LSRII flow cytometer (BD Biosciences) and analyzed with FlowJo software (version 10.1; Tree Star Inc.).
as §1, with “cavity. Finally, the opposing sections of the abdominal wall were aligned at the ventral midline, and an absorbable suture (4-0 Vicryl) was applied to close the incision.” for “cavity.”

C[C@H]1C(=O)O[C@@H]2CCN3CC=C(COC(=O)[C@](C)(O)[C@]1(C)O)[C@H]23 [MCT, monocrotaline]
human hepatocyte engraftment (serum human albumin) (NSG-PiZ mice [1]; MCT 50 mg/kg before engraftment or 1 μg anti-mouse CD95 antibody at engraftment, versus intrasplenic engraftment alone): significantly increased | human hepatocyte engraftment (serum human albumin), comparison of groups (NSG-PiZ mice [1]): greatest engraftment | human hepatocyte engraftment (serum human albumin), comparison of groups (NSG-PiZ mice [1]; listed as monocrotaline): greatest serum human albumin concentrations | hepatocytes of human origin (NSG-PiZ mice [2]): at least 25%
